The supplement of paper PMC6045584
± gives the standard deviation of the averaged measurements.

Key:
[1] = compound: T1, COc1cc2nccc(Oc3ccc(NC(=O)C4(C(=O)Nc5ccc(F)cc5)CC4)cc3)c2cc1OC [CABOZANTINIB]; experiment: surviving fraction relative to DMSO-only wells; higher = less growth inhibition; conditions: exposure time: 5 days
Summary of the method: (§1)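 Five days of continuous inhibitor exposure, at 0.5, 1, 5, 10, 50, 100, 500 and 1000 nM, followed a 24-hour period after log-phase tumour cell lines were seeded at 250–500 cells per well in 384-well plates. Surviving fraction was derived from CellTiter-Glo luminescence relative to the median of DMSO-only wells. Plates were read after 10 minutes at room temperature, and lines screened three times were kept only if replicate Pearson r >0.7 and median Z' >0.3.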

[2] = compound: T1, CABOZANTINIB; experiment: area under dose-response curve of surviving fraction (unscaled, Aref=0) (surviving fraction x log10(nM)); higher = more resistant; conditions: exposure time: 5 days; dose range 0.5-1000 nM
Summary of the method: (§2)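 Each tumour cell line was screened three times in 384-well plates, receiving eight inhibitor concentrations from 0.5 to 1000 nM for five days. CellTiter-Glo luminescence gave viability, normalised to DMSO-only wells. Using the drc R package, surviving fractions were fitted with 3-parameter logistic dose-response curves, and the unscaled activity area over log10 dose (Aref = 0) was taken as the area under the curve.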

[3] = compound: C[C@H](CN(C)C)Oc1nc(Nc2cc3cccc(Cl)c3cn2)cnc1C#N; experiment: as above; conditions: exposure time: 5 days; dose range 0.5-1000 nM
Summary of the method: as §2

[4] = compound: Cc1ccc(NC(=O)c2ccc(CN3CCN(C)CC3)cc2)cc1Nc1nccc(-c2cccnc2)n1 [IMATINIB]; experiment: as above; conditions: exposure time: 5 days; dose range 0.5-1000 nM
Summary of the method: as §2

[5] = compound: Cc1cn(-c2cc(NC(=O)c3ccc(C)c(Nc4nccc(-c5cccnc5)n4)c3)cc(C(F)(F)F)c2)cn1 [NILOTINIB]; experiment: as above; conditions: exposure time: 5 days; dose range 0.5-1000 nM
Summary of the method: as §2

[6] = compound: O=C(CCCCCCC(=O)Nc1ccccc1)NO [VORINOSTAT]; experiment: surviving fraction relative to DMSO-only wells; higher = less growth inhibition; conditions: exposure time: 5 days
Summary of the method: as §1

Test System | surviving fraction ([1]; 0.5 nM) | surviving fraction ([1]; 1 nM) | surviving fraction ([1]; 5 nM) | surviving fraction ([1]; 10 nM) | surviving fraction ([1]; 50 nM) | surviving fraction ([1]; 100 nM) | surviving fraction ([1]; 500 nM) | surviving fraction ([1]; 1000 nM) | area under dose-response curve [2] | area under dose-response curve [3] | area under dose-response curve [4] | area under dose-response curve [5] | surviving fraction ([6]; 0.5 nM) | surviving fraction ([6]; 1 nM) | surviving fraction ([6]; 5 nM) | surviving fraction ([6]; 10 nM) | surviving fraction ([6]; 50 nM) | surviving fraction ([6]; 100 nM) | surviving fraction ([6]; 500 nM) | surviving fraction ([6]; 1000 nM)
CCK81 LARGE INTESTINE | 0.691 ± 0.07 | 0.837 ± 0.062 | 0.725 ± 0.12 | 0.764 ± 0.019 | 0.704 ± 0.073 | 0.686 ± 0.075 | 0.718 ± 0.12 | 0.743 ± 0.08 | 2.42 | 2.09 | 2.6 | 2.58 |  |  |  |  |  |  |  | 
G292 BONE | 0.911 ± 0.047 | 0.977 ± 0.012 | 1.02 ± 0.078 | 1.02 ± 0.046 | 0.925 ± 0.04 | 0.876 ± 0.021 | 0.76 ± 0.035 | 0.722 ± 0.024 | 3.03 | 3.2 | 3.31 | 3.44 | 1.02 ± 0.027 | 0.995 ± 0.029 | 0.982 ± 0.046 | 1.04 ± 0.047 | 0.979 ± 0.04 | 0.947 ± 0.036 | 0.691 ± 0.032 | 0.511 ± 0.03
HCC38 BREAST | 1.07 ± 0.1 | 1.14 ± 0.12 | 1.38 ± 0.22 | 1.34 ± 0.23 | 1.13 ± 0.074 | 1.24 ± 0.067 | 1.22 ± 0.1 | 1.34 ± 0.15 | 4.07 | 2.59 |  | 2.77 | 1.25 ± 0.035 | 1.25 ± 0.028 | 1.27 ± 0.15 | 1.24 ± 0.097 | 1.42 ± 0.26 | 1.23 ± 0.21 | 1.06 ± 0.066 | 0.633 ± 0.11
HCC70 BREAST | 0.985 ± 0.1 | 1.03 ± 0.048 | 1.07 ± 0.11 | 1.09 ± 0.065 | 1.04 ± 0.14 | 1.12 ± 0.045 | 1.09 ± 0.091 | 0.99 ± 0.051 | 3.5 | 3.06 | 3.79 | 3.93 | 0.965 ± 0.061 | 0.963 ± 0.042 | 1 ± 0.054 | 1.02 ± 0.11 | 1.06 ± 0.094 | 0.973 ± 0.073 | 0.766 ± 0.037 | 0.496 ± 0.049
HMLE3 BREAST | 0.925 ± 0.14 | 0.91 ± 0.032 | 0.98 ± 0.023 | 0.942 ± 0.08 | 0.992 ± 0.07 | 0.91 ± 0.064 | 0.72 ± 0.049 | 0.656 ± 0.0044 | 3.06 |  | 3.75 | 3.97 | 0.914 ± 0.067 | 0.95 ± 0.038 | 1.11 ± 0.03 | 1.01 ± 0.095 | 1.04 ± 0.042 | 1.09 ± 0.049 | 0.982 ± 0.066 | 0.702 ± 0.073
HMT3552 BREAST | 1.12 ± 0.044 | 1.04 ± 0.012 | 1.02 ± 0.021 | 1.03 ± 0.051 | 1.21 ± 0.067 | 1.09 ± 0.085 | 1.01 ± 0.061 | 0.988 ± 0.057 |  | 2.82 | 3.57 | 3.47 | 0.95 | 1.12 | 1.03 | 1.01 | 1.09 | 1.14 | 0.656 | 0.329
HS578T BREAST | 0.931 ± 0.14 | 0.97 ± 0.1 | 0.786 ± 0.087 | 1.12 ± 0.087 | 1.04 ± 0.08 | 1.2 ± 0.049 | 1.06 ± 0.075 | 0.998 ± 0.099 | 3.18 | 2.54 | 3.7 | 2.81 | 0.951 ± 0.12 | 0.888 ± 0.12 | 0.922 ± 0.2 | 0.989 ± 0.11 | 0.945 ± 0.2 | 0.821 ± 0.068 | 0.569 ± 0.08 | 0.347 ± 0.034
